One compound from patent US10633397B2, “Substituted polycyclic pyridone derivatives and prodrugs thereof” (priority 2015, dated 2020) can be followed below.

Series [1] deals with red blood cells prepared from a defibrinated blood of sheep. The experiment in a line: Light hemolysis test. Format: cell-based. Conditions: 10 J/cm^2 UV-irradiation, 0.0008 to 0.1 w/v %. As for the experimental part:
Test Example 12: Light Hemolysis Test
The compound of the present invention was dissolved at target concentrations and was mixed with a 2.5 v/v % suspension of red blood cells prepared from a defibrinated blood of sheep on a microplate at concentrations of 0.0008 to 0.1 w/v %. The mixtures were exposed to 10 J/cm^2 of UV-irradiation within a range of wavelength 290 to 400 nm, UVA and UVB using ultra violet fluorescent lamps, GL20SE and FL20S-BLB lamps manufactured by Sankyo Denki Co., Ltd. and Panasonic Corporation, respectively. After the completion of the irradiation, the mixtures were centrifuged, and a supernatant of the mixture was collected and was located on a microplate. The phototoxicity was assessed by measuring an absorbance at wavelength of 540 nm and 630 nm in the supernatant. The absorbance data at wavelength of 540 nm and 630 nm were used as indicators of biomembrane damage (photohemolysis %) and hyperoxidation of lipid membrane (methemoglobin formation), respectively. The criteria of phototoxicity was as follows; It was judged to be non-phototoxic (−) when the photohemolysis %<10 and the maximal change in the absorbance at 630 nm (ΔOD)<0.05 were observed. It was judged to be […] when the photohemolysis was more than 10% and the maximal change in the absorbance at 630 nm (ΔOD) was more than 0.05.

A further series can be described thus: in vivo. Conditions: rat, SD rats, intravenous administration. As to the method:
Test Example 13: Intravenous Administration Test
Examined experimental materials and method of intravenous administration test
(1) Animals used: SD rats were used.
(2) Rearing conditions: Pellets and sterilized tap water were fed to SD rats ad libitum.
(3) Dosage and grouping: A predetermined dosage was intravenously administered. Groups were set as follows. (Dosage varied for each compound)
Intravenous administration 0.5-1 mg/kg (n=2-3)
(4) Preparation of administration solution: Intravenous administration was performed after solubilization.
(5) Administration method: Intravenous administration was performed with a needle-equipped syringe on the caudal vein.
(6) End point: Blood was collected over time, and the plasma concentration of the compound of the present invention was measured using LC/MS/MS.
(7) Statistical analysis: As for the transition of the plasma concentration of the compound of the present invention, the total body clearance (CLtot) and the elimination half-life (t1/2, z) were calculated using nonlinear least-squares program WinNonlin®.

In the next series the target is T1, CYP2D6 (Homo sapiens, UniProt P10635).
T1 construct: Using commercially available pooled human hepatic microsome; from tissue
The experiment in a line: biochemical. It counts as in vitro ADME. An excerpt: (§1) Test Example 3: CYP Inhibition Test
(§2) Using commercially available pooled human hepatic microsome, and employing, as markers, 7-ethoxyresorufin O-deethylation (CYP1A2), tolbutamide methyl-hydroxylation (CYP2C9), mephenytoin 4′-hydroxylation (CYP2C19), dextromethorphan O-demethylation (CYP2D6), and terfenedine hydroxylation (CYP3A4) as typical substrate metabolism reactions of human main five CYP enzyme forms (CYP1A2, 2C9, 2C19, 2D6, 3A4), an inhibitory degree of each metabolite production amount by a compound of the present invention was assessed.
(§3) The reaction conditions were as follows: substrate, 0.5 μmol/L ethoxyresorufin (CYP1A2), 100 μmol/L tolbutamide (CYP2C9), 50 μmol/L S-mephenytoinmephenitoin (CYP2C19), 5 μmol/L dextromethorphan (CYP2D6), 1 μmol/L terfenedine (CYP3A4); reaction time, 15 minutes; reaction temperature, 37° C.; enzyme, pooled human hepatic microsome 0.2 mg protein/mL; concentration of a compound of the present invention, 1, 5, 10, 20 μmol/L (four points).
(§4) Each five kinds of substrates, human hepatic microsome, or a compound of the present invention in 50 mmol/L Hepes buffer as a reaction solution was added to a 96-well plate at the composition as described above, NADPH, as a cofactor was added to initiate metabolism reactions as markers and, after the incubation at 37° C. for 15 minutes, a methanol/acetonitrile=1/1 (v/v) solution was added to stop the reaction. After the centrifugation at 3000 rpm for 15 minutes, resorufin (CYP1A2 metabolite) in the supernatant was quantified by a fluorescent multilabel counter and toltributamide hydroxide (CYP2C9P metabolite), mephenytoin 4′ hydroxide (CYP2C19 metabolite), […] (CYP2D6 metabolite), and terfenadine alcohol (CYP3A4 metabolite) were quantified by LC/MS/MS.

The target of another series is T2, CYP2C9 (Homo sapiens, UniProt P11712).
T2 construct: Using commercially available pooled human hepatic microsome; from tissue
The experiment in a line: biochemical. Format: in vitro ADME.
Description: as §1, §2, §3, §4

The target of the next series is T3, CYP3A4 (Homo sapiens, UniProt P08684).
T3 construct: Using commercially available pooled human hepatic microsome; from tissue
In words: biochemical. Format: in vitro ADME.
Description: as §1, §2, §3, §4

The next series has as its target T4, CYP1A2 (Homo sapiens, UniProt P05177).
T4 construct: Using commercially available pooled human hepatic microsome; from tissue
T4 sequence (P05177 1-516): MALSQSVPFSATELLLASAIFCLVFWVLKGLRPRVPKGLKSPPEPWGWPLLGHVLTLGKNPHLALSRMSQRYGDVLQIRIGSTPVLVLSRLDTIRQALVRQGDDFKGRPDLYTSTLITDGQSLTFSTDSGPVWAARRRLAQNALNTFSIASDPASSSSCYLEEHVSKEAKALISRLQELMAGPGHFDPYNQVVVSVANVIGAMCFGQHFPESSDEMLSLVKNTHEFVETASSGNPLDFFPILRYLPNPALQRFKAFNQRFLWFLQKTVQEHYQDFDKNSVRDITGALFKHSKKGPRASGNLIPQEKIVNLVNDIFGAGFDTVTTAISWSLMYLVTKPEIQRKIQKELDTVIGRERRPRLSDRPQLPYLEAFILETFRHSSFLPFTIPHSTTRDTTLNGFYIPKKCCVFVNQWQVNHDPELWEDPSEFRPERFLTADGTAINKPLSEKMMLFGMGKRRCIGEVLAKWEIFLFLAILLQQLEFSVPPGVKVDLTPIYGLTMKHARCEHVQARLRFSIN
The experiment in a line: biochemical. Format: in vitro ADME.
Description: as §1, §2, §3, §4

A further series addresses T5, CYP2C19 (Homo sapiens, UniProt P33261).
T5 construct: Using commercially available pooled human hepatic microsome; from tissue
The experiment in a line: biochemical. Format: in vitro ADME.
Description: as §1, §2, §3, §4

T2 sequence (P11712 whole entry): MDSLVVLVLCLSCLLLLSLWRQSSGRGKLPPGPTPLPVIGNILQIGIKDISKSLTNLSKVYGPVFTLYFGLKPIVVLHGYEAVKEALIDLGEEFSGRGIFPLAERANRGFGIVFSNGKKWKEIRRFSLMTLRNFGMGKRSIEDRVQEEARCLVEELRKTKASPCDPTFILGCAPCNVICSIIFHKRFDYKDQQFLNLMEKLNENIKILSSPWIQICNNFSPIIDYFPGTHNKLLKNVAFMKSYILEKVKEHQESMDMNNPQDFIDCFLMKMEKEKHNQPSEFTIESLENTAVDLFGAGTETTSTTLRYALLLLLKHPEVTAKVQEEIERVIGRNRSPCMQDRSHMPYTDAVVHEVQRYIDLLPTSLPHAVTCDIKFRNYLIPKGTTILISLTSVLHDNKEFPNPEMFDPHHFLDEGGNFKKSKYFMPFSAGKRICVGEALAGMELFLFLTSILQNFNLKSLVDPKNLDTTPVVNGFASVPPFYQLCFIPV
T3 sequence (P08684 whole entry): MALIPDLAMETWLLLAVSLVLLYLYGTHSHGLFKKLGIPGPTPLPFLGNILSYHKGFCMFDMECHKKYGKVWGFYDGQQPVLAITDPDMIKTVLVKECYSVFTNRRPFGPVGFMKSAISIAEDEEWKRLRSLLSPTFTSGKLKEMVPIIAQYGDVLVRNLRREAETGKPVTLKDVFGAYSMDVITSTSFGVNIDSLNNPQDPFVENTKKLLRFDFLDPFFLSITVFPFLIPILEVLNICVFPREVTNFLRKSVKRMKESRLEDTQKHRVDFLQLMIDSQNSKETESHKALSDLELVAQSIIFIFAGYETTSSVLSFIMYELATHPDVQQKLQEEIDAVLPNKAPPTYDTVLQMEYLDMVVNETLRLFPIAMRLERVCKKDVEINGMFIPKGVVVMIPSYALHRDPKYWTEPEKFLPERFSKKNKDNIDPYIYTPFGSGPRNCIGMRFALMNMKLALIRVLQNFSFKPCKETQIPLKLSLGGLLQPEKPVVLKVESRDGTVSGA
T1 sequence (P10635 whole entry): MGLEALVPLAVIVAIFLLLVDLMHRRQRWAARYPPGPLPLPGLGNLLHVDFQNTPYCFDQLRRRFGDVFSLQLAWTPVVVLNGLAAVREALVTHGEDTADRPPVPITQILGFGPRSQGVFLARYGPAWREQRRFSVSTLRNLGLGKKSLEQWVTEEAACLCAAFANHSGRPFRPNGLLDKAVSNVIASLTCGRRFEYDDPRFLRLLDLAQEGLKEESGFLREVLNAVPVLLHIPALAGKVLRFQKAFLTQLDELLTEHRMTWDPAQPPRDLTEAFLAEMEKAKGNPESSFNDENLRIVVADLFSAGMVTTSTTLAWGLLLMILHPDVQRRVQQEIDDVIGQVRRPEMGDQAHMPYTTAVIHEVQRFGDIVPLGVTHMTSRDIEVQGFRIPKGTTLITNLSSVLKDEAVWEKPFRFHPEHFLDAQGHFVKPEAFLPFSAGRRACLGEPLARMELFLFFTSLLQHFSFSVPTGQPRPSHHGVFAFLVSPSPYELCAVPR
T5 sequence (P33261 whole entry): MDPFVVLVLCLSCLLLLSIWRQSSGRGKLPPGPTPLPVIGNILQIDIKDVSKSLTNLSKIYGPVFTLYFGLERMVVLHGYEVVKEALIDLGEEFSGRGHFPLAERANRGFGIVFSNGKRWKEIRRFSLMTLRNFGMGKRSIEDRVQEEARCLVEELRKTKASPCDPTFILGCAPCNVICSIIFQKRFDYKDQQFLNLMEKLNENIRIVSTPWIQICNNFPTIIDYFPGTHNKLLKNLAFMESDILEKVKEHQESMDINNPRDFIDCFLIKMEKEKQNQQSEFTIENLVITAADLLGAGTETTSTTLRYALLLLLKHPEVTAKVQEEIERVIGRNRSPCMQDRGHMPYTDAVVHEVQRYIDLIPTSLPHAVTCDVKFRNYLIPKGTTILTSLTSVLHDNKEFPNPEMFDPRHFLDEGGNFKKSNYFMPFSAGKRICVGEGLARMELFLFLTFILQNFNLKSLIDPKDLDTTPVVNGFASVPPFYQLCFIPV

Regarding `O=C1c2c(O)c(=O)ccn2N([C@@H]2c3ccccc3SCc3c2ccc(F)c3F)[C@@H]2COCCN12` [III-2], in series [1], the phototoxicity result was “(−) (It was judged to be non-phototoxic (−) when the photohemolysis %<10 and the maximal change in the absorbance at 630 nm (ΔOD)<0.05 were observed)”. Further, in “in vivo” (read-out: elimination half-life (t1/2, z) (converted)), the half-life is 204 min. The clearance in the series “in vivo” (read-out: total body clearance (CLtot)) is 16.4 mL/min/kg. For the same compound, the IC50 at CYP2D6, at CYP2C9, at CYP3A4, against CYP1A2 and against CYP2C19 was more than 20 µM throughout.

In general, clearance refers to a measure of how efficiently the substance is removed, as volume per time. For orientation: IC50 means the concentration at which inhibition is half-maximal. Low values mean greater potency, high ones weaker potency.
